This is an account of results in patent US12377067B2, “Methods of treating PAH with combinations of ralinepag and other agents” (Arena Pharmaceuticals, Inc., priority 2016, dated 2025).

Test [1] concerns human PASMCs from PAH patients. Kind of test: Cyclic AMP assay. The test is classed as cell-based. Conditions: cyclic AMP assay. The method, then: Human PASMCs from PAH patients were grown to 70-80% confluence in 12 well plates in DMEM/F12 containing 9% foetal bovine serum (FBS), penicillin (50 U/ml)/streptomycin (50 ag/ml). To assess the time-course of cAMP elevation, cells were stimulated with 100 nM ralinepag for varying times (0.5, 1, 2, 4, 8, 24, 48 hours). This dose of ralinepag was chosen on the basis that it was close to the EC50 for cAMP generation in preliminary experiments. In other experiments, the IP receptor agonist was added for a specified time (60 minutes) over a full concentration range (0.1-10,000 nM) in the absence and presence of […] of the IP receptor antagonist, RO-1138452. The antagonist is added 30 minutes beforehand and remained throughout.
To extract cyclic AMP, the medium was aspirated and PASMCs cells incubated in 0.1 M HCl for 20 minutes on ice followed by centrifugation at 1000 g for 10 minutes at 4° C. The protein concentration in the supernatant was determined using a […] protein assay (BCA, Novagen, EmD Chemicals, CA, USA). Intracellular cyclic AMP was measured using a competitive enzyme immunoassay 96 well plate kit (ADI-900-163, Enzo Life Sciences, Exeter, UK) and the assay performed according to the manufacturer's instructions. Each sample was run in duplicate and data expressed as pmol of cAMP per mg of total protein for each individual sample. Basal levels were subtracted from each agonist concentration data point. Given the large variation (˜15-fold) in cAMP generation from different patient samples, data was also normalized to the peak cyclic AMP response (assigned 100%) in each cell isolate.

The target of the next test is human IP receptor (Homo sapiens, UniProt P43119). The note with it: cited from earlier work.
Sequence of human IP receptor (P43119 whole entry): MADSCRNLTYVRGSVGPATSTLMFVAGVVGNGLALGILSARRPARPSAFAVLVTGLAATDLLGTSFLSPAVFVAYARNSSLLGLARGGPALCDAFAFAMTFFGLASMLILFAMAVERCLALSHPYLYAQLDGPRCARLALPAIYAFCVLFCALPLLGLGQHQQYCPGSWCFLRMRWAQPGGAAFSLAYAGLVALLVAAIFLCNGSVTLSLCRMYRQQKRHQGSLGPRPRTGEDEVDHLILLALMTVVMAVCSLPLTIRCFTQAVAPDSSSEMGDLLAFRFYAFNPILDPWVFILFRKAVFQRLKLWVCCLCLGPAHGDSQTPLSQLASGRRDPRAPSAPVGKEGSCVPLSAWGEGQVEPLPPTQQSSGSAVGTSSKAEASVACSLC
The subject of test [2] is human PASMCs from PAH patients. Kind of test: Cell proliferation assay (MTS), serum-induced growth. The test is classed as cell-based. Conditions: for IP receptor dependence of the effect: cyclic AMP and cell proliferation assays in human PASMCs from PAH patients; for inhibition of serum-induced growth (significance) / inhibition at 0.1 µM: drug alone at 100 nM; for inhibition of serum-induced growth (significance): compared to serum and DMSO alone; for inhibition at 0.1 µM: Homo sapiens, PASMC, 96 h, compared to FBS and DMSO, 4 days. How it is done: Primary cell lines of distal PASMCs from PAH patients were derived from explanted lungs as previously described (Falcetti et al., 2010; Bubb et al., 2014). These cells have an abnormal proliferative capacity when grown in culture (Zhang et al., 2007; Falcetti et al., 2010). Frozen cells were revived and grown in human smooth muscle basal medium-2 (SMBM; Lonza, Slough, UK) supplemented with 9% fetal bovine serum (FBS) at 37° C. in a humidified atmosphere of 5% CO2. After reaching confluence, cells were washed with phosphate-buffered saline (PBS) and treated with trypsin-EDTA for further passage. Only cells between passages 3 and 10 were used for experiments.
Comparative concentration-dependent effects of IP receptor agonists on cell proliferation were assessed on human PASMCs derived from PAH patients. Cells were seeded onto 96-well plates at a density of 1×10^4 cells/ml and grown at 37° C. in a humidified CO2 incubator in human smooth muscle basal medium-2 (SMBM; Lonza) containing 9% FBS and penicillin-streptomycin (Pen/Strep; 50 units/ml). After 24 hours, cells were growth arrested by incubating for 48 hours in fresh media containing no added serum. Media was then subsequently removed, replaced with human SMBM containing 9% serum with or without 0.1% DMSO in the absence and presence of the IP receptor agonist (either ralinepag, iloprost, treprostinil or MRE-269) and cells treated with the IP receptor agonist for 4 days over the concentration range ([…]). Responses were directly compared in cells containing the IP receptor antagonist, RO-1138452 (1 μM), which was added to cells 30-60 minutes prior to the addition of the IP agonist and remained throughout the experiment. Cells incubated with no added serum over the same time period (4 days) acted as the time control.
Cell proliferation was obtained using an MTS proliferation kit (Promega), a colorimetric method for determining the number of viable cells which is based on the cleavage of the tetrazolium salt MTS to formazan by cellular mitochondrial dehydrogenases. An increase in cell number leads to a proportional increase in the amount of formazan dye formed which is quantified by measuring the absorbance of the dye solution at 490 nm. In each case background absorbance was corrected by subtracting the average absorbance from the “no cell” control wells from all other absorbance values.
Cell proliferation was then normalized to the growth response induced by FBS alone, which was taken as the FBS response minus the time control (=100% growth at 4 days). Growth responses induced in presence of solvent±drugs is shown as % change in cell proliferation relative to the FBS response alone in all figures.
All data are presented as mean±standard error of mean (S.E.M) of at least 5 observations. Agonist log-concentration curves were constructed and fitted using the non-linear fitting routine in GraphPad Prism 4 or 6 (San Diego, Calif., USA). The concentration of agonist causing 50% of the maximal response (Emax) was expressed as the negative log (pEC50) and the mean EC50 calculated. P values <0.05 are considered statistically significant.

The next test addresses PDE1. The note with it: cited from earlier work.

Molecules are shown by their SMILES.

Take `CC(C)N(CCCCOCC(=O)O)c1cnc(-c2ccccc2)c(-c2ccccc2)n1` [MRE-269, [4[(5,6diphenylpyrazinyl)(1methylethyl)amino]butoxy]acetic acid, reference compound]: the “maximal effect compared with treprostinil” value in test [1] and in test [2] (cell proliferation assay) was “weaker maximal effects” in each case. Also, on human IP receptor, the Ki was 20 nM. For the same compound, in test [2], the “IP receptor dependence of the effect” value was “selective IP receptor agonists”.
Turning to `COc1ccccc1Oc1c(NS(=O)(=O)c2ccc(C(C)(C)C)cc2)nc(-c2ncccn2)nc1OCCO` [bosentan, reference compound], the “inhibition of serum-induced growth (significance)” value (“inhibition … (significance)” for short) in test [2] is “did not cause a significant inhibition”.
Turning to `CC#CCC(C)[C@H](O)/C=C/[C@@H]1[C@H]2C/C(=C/CCCC(=O)O)C[C@H]2C[C@H]1O` (some centres unmarked) [iloprost, reference compound], in test [2], the “IP receptor dependence of the effect” value is recorded as “IP-independent mechanisms”.
As for `CCCNS(=O)(=O)Nc1ncnc(OCCOc2ncc(Br)cn2)c1-c1ccc(Br)cc1` [macitentan, reference compound], the inhibition at 0.1 µM in test [2] was ~12%.
`COC(=O)N(C)c1c(N)nc(-c2nn(Cc3ccccc3F)c3ncccc23)nc1N` [riociguat, reference compound]: the inhibition at 0.1 µM in test [2] is ~15%.
Regarding `CC(C)N(CCCCOCC(=O)NS(C)(=O)=O)c1cnc(-c2ccccc2)c(-c2ccccc2)n1` [selexipag, 2-{4-[(5,6-diphenylpyrazin-2-yl)(propan-2-yl)amino]butoxy}-N-(methanesulfonyl)acetamide], at human IP receptor, the Ki was 260 nM.
Regarding `CCCc1nn(C)c2c(=O)[nH]c(-c3cc(S(=O)(=O)N4CCN(C)CC4)ccc3OCC)nc12` [sildenafil, reference compound], the Ki on PDE1 is 40 nM. For the same compound, in test [2], the “inhibition … (significance)” value is on record as “did not significantly inhibit growth”.
`CCCCC[C@H](O)CC[C@@H]1[C@H]2Cc3cccc(OCC(=O)O)c3C[C@H]2C[C@H]1O` [treprostinil, reference compound]: the “antiproliferative response in the presence of an IP receptor antagonist” value in test [2] (IP receptor antagonist RO-1138452 (1 μM)) is listed as “only weakly inhibited”. In test [2], the “IP receptor dependence of the effect” value is “IP-independent mechanisms” and the “inhibition … (significance)” value is given as “significantly inhibited growth”.
